Data: the supplement of paper PMC10307832

Columns and labels:
Test in all cases: relative viability (nuclei count vs DMSO), 5 days (fraction); higher = more cells survive
[1] = compound: CC1(COc2ccc3c(c2)ncn3-c2ccc3cccc(N4CCC(N)CC4)c3n2)COC1 [Crenolanib] + Cc1nc(NC(=O)N2CCC[C@H]2C(N)=O)sc1-c1ccnc(C(C)(C)C(F)(F)F)c1 [Alpelisib] (partner 2 µM)
In short: (§1)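 For relative viability, nuclei counts in treated wells were divided by those in vehicle wells. Lung cancer cell lines had been pin-tool dosed in 1536-well plates the day after seeding and cultured for 5 days, then fixed and stained in one step (final 0.05% Triton X-100, 1% formaldehyde, 1 ug/ml Hoechst) and imaged at 4×. Doses were one drug alone or a fixed anchor-drug dose plus five library-drug doses (not always all listed) in √10 steps, and values are duplicate-plate medians.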

[2] = compound: CC1(COc2ccc3c(c2)ncn3-c2ccc3cccc(N4CCC(N)CC4)c3n2)COC1 [Crenolanib] + Cc1nc(Nc2ncc(C(=O)Nc3c(C)cccc3Cl)s2)cc(N2CCN(CCO)CC2)n1 [Dasatinib] (partner 0.075 µM)
In short: as §1

[3] = compound: O=C1NC(=O)[C@@H](c2cn3c4c(cccc24)CCC3)[C@@H]1c1c[nH]c2ccccc12 [Tivantinib] + COc1cc2c(Oc3ccc(NC(=O)C4(C(=O)Nc5ccc(F)cc5)CC4)cc3F)ccnc2cc1OCCCN1CCOCC1 [Foretinib] (partner 0.25 µM)
In short: as §1

[4] = compound: O=C1NC(=O)[C@@H](c2cn3c4c(cccc24)CCC3)[C@@H]1c1c[nH]c2ccccc12 [Tivantinib] + C[C@@H](Oc1cc(-c2cnn(C3CCNCC3)c2)cnc1N)c1c(Cl)ccc(F)c1Cl [Crizotinib] (partner 1 µM)
In short: as §1

Cell Line	relative viability ([1]; first compound 0.01 µM)	relative viability ([1]; first compound 0.03162 µM)	relative viability ([1]; first compound 0.1 µM)	relative viability ([1]; first compound 0.3162 µM)	relative viability ([1]; first compound 1 µM)	relative viability ([2]; first compound 0.01 µM)	relative viability ([2]; first compound 0.03162 µM)	relative viability ([2]; first compound 0.1 µM)	relative viability ([2]; first compound 0.3162 µM)	relative viability ([2]; first compound 1 µM)	relative viability ([3]; first compound 0.01 µM)	relative viability ([3]; first compound 0.03162 µM)	relative viability ([3]; first compound 0.1 µM)	relative viability ([3]; first compound 0.3162 µM)	relative viability ([4]; first compound 0.01 µM)	relative viability ([4]; first compound 0.03162 µM)	relative viability ([4]; first compound 0.1 µM)	relative viability ([4]; first compound 0.3162 µM)
NCI-H838	1.02	0.991	0.968	1.22	0.846	0.262	0.294	0.273	0.28	0.219	1	1.07	0.992	1.07	0.831	0.924	0.886	0.963
NCI-H1355	0.845	0.803	0.911	1.02	0.748	0.733	0.704	0.681	0.718	0.488	1.08	1.03	0.995	0.915	1.15	1.1	1.01	0.806
NCI-H1437	0.999	1.07	0.944	1.18	0.949	0.403	0.369	0.361	0.377	0.42	1.26	1.34	1.3	1.25	0.875	1.07	0.977	0.91
NCI-H1563	0.99	0.924	1.1	1.07	0.905	0.452	0.41	0.472	0.464	0.452	0.98	0.892	0.819	0.783	0.851	0.893	0.822	0.884
NCI-H1651	0.89	0.903	0.893	0.982	0.867	0.504	0.377	0.373	0.531	0.336	0.931	0.813	0.769	0.691	0.893	0.828	0.867	0.762
NCI-H1666	0.932	0.969	1.04	1.08	1.02	0.791	0.854	0.745	0.819	0.745	0.936	1.01	0.979	0.827	0.955	1.03	0.993	0.992
NCI-H1734	0.707	0.664	0.653	0.855	0.737	0.502	0.427	0.468	0.465	0.453	0.952	0.937	0.743	0.598	0.685	0.73	0.586	0.569
NCI-H1755	0.958	0.953	0.915	1.05	0.898	0.465	0.472	0.395	0.437	0.384	0.971	0.863	0.871	1.03	0.892	0.878	0.793	0.92
NCI-H1915	1.04	1.07	1.04	1.07	0.874	0.306	0.271	0.304	0.294	0.223	1.11	1.06	1.08	1.07	0.868	0.888	0.852	0.91
